For orientation: IC50 means the concentration that gives 50% inhibition.

Data on 20 compounds can be found in patent US20260138959A1, “QUINAZOLINE DERIVATIVE COMPOUND AND USE THEREOF” (VORONOI INC., priority 2021, published 2026).

One experiment has as its target T1, human PDGFR-β(wt) (Homo sapiens, UniProt P09619).
T1 construct: purchased Signalchem P13-11G
As to the kind of experiment: Enzyme inhibitory activity, ADP-Glo kinase assay, PDGFR-β(wt). The class given is biochemical. The conditions noted are these: read-out: PDGFR-β (IC50 class). The protocol:
In order to evaluate the inhibitory activity of the compounds synthesized according to the above examples on PDGFR-α(wt), PDGFR-β(wt), c-KIT(wt), and c-KIT(D816V) kinases, the following method was performed. The compounds of examples were reacted with purified human PDGFR-α(wt) (Signalchem #P12-18G) enzyme, human PDGFR-β(wt) (Signalchem #P13-11G) enzyme, human c-KIT(wt) (Signalchem #K06-11BG) enzyme, human c-KIT(D816V) (Signalchem #C06-12LG) enzyme, and the enzyme inhibitory abilities were evaluated by the following method.
The reaction buffer was used as a composition of 40 mM Tris-HCl pH7.4, 20 mM MgCl2, 0.5 mg/ml BSA, 50 μM DTT, and the reactions of all the tests were carried out on the reaction buffer. The compound was diluted in 12 steps using a serial dilution method from a 10 mM DMSO stock, and the enzyme activity was measured at a final compound concentration of 10˜0.00005645 μM. During the test, the enzyme activity was confirmed using in vitro ADP-Glo™ kinase assay (Promega) after reacting with the proper concentration of human PDGFR-α(wt) enzyme, human PDGFR-β(wt), human c-KIT(wt) enzyme, and human c-KIT(D816V) enzyme with purified ATP and enzyme substrate at 25° C. for 1˜2 hours. At a ratio of 2:2:1, an enzyme-active reaction solution, an ADP-Glo reaction solution, and an enzyme-active detection solution were reacted to measure the inhibition of the enzyme's activity with luminoscence. Based on the […] of the enzyme activity of the solvent control that was not treated with the compound, the degree of enzyme activity inhibition was calculated according to the treatment concentration of each compound, and the concentration of each compound that inhibits 50% of enzyme activity was determined as IC50 (nM) value and the value was obtained by using GraphPad Prism 8.3.0 (GraphPad software Inc., San Diego) software. (A: IC50≤50 nM; B: 50 nM<IC50≤100 nM; C: 100 nM<IC50≤500 nM; D: IC50>500 nM).
On the technique in general: ADP-Glo turns the ADP formed in a reaction into a luminescent signal.

The test system of a further experiment is Ba/F3-c-KIT(D816V). As to the kind of experiment: Proliferation inhibitory activity on Ba/F3 cell (CellTiter-Glo, 72 hours), c-KIT(D816V). The class given is cell-based. The following applies: Mus musculus, BaF3, read-out: Ba/F3 (nM) c-KIT (D816V) (GI50 class). Put shortly: (§1)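 GI50 here reflects 72 h growth inhibition of engineered Ba/F3 lines dependent on PDGFRα, PDGFRβ or c-KIT mutants (D816V, V560G/D816V, D814Y). Compounds spanned 0.00005-10 μM final; CellTiter-Glo read-out.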
A general note: ATP-based viability assays read luminescence as a measure of living cells.

For the next experiment, the system named is c-KIT V560G/D816V. The experiment is described as follows: Proliferation inhibitory activity on Ba/F3 cell (CellTiter-Glo, 72 hours), c-KIT V560G/D816V. Format: cell-based. The following applies: Mus musculus, BaF3, c-KIT V560G/D816V cells, read-out: Cell (nM) c-KIT V560G/D816V (GI50 class). Summed up:
as §1

T1 sequence (P09619 33-1106): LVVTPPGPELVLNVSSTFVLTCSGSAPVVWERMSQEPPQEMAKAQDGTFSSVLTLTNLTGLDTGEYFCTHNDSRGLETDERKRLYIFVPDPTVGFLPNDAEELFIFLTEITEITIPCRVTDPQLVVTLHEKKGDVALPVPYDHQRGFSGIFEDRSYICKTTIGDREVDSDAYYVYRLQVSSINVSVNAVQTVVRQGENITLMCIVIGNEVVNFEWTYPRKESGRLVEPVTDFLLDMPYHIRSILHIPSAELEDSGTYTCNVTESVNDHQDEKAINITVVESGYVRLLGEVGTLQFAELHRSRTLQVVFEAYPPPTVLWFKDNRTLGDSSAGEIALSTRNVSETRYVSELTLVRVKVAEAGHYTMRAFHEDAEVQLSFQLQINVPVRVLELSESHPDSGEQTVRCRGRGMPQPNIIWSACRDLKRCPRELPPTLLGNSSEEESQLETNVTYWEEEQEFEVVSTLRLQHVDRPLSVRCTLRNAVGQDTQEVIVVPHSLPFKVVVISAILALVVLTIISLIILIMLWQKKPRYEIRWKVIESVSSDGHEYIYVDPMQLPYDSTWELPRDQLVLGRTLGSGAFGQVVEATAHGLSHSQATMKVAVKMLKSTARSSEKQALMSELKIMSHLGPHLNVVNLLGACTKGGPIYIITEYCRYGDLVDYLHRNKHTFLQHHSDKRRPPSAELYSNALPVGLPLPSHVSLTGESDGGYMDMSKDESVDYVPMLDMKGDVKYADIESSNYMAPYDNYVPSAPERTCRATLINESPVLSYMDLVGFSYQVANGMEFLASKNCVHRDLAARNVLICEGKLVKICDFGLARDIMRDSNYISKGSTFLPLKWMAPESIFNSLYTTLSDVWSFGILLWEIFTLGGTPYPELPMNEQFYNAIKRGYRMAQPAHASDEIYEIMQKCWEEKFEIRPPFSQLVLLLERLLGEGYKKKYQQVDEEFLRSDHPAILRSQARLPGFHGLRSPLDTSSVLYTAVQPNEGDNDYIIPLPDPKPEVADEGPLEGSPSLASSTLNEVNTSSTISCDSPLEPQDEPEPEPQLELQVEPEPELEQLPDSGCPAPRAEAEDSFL

Consider `COc1cc2ncnc(-c3ccc(NC(=O)Cc4ccc(C(F)(F)F)cc4)cc3)c2cc1OCC1CCCN(C(=O)OC(C)(C)C)C1` (centres unmarked) [Example 130, tert-butyl 3-(((7-methoxy-4-(4-(2-(4-(trifluoromethyl)phenyl)acetamido)phenyl)quinazolin-6-yl)oxy)methyl)piperidin-1-carboxylate], for which the IC50 on human PDGFR-β(wt) was no more than 50 nM. Further, the GI50 in the experiment with Ba/F3-c-KIT(D816V) lay in the range of 200 to 500 nM.

As to `COc1cc2ncnc(-c3ccc(NC(=O)Cc4ccc(C(F)(F)F)cc4)cc3)c2cc1OCCCN1CC(CO)(CO)C1` [Example 150], the IC50 at human PDGFR-β(wt) was no more than 50 nM. Moreover, the GI50 with Ba/F3-c-KIT(D816V) was greater than 500 nM.

`CCN1CCC[C@H](COc2cc3ncnc(-c4ccc(NC(=O)Cc5ccc(C(F)(F)F)cc5)cc4)c3cc2OC)C1` [Example 76, (S)-N-(4-(7-((1-ethylpiperidin-3-yl)methoxy)-6-methoxyquinazolin-4-yl)phenyl)-2-(4-(trifluoromethyl)phenyl)acetamide]: the IC50 on human PDGFR-β(wt) was no more than 50 nM. Further, the GI50 in the experiment with Ba/F3-c-KIT(D816V) and with c-KIT V560G/D816V was no more than 200 nM each time.

Regarding `COc1cc2c(-c3ccc(NC(=O)Cc4ccc(C(F)(F)F)cc4)cc3)ncnc2cc1OCC1CCN(C)CC1` [Example 56, N-(4-(6-methoxy-7-((1-methylpiperidin-4-yl)methoxy)quinazolin-4-yl)phenyl)-2-(4-(trifluoromethyl)phenyl)acetamide], the IC50 at human PDGFR-β(wt) is no more than 50 nM. The GI50 in the experiment on c-KIT V560G/D816V is no more than 200 nM.

Take `COc1cc2c(-c3ccc(NC(=O)Cc4ccc(C(F)(F)F)cc4)cc3)ncnc2cc1OCCCN1C2CC1CN(C)C2` [Example 37, N-(4-(6-methoxy-7-(3-(3-methyl-3,6-diazabicyclo[3.1.1]heptane-6-yl)propoxy)quinazolin-4-yl)phenyl)-2-(4-(trifluoromethyl)phenyl)acetamide]: the IC50 at human PDGFR-β(wt) is no more than 50 nM. For the same compound, the GI50 with Ba/F3-c-KIT(D816V) and with c-KIT V560G/D816V was no more than 200 nM throughout.

Take `CCN1CCC(COc2cc3ncnc(-c4ccc(NC(=O)Cc5ccc(Cl)nc5)cc4)c3cc2OC)CC1` [Example 70, 2-(6-chloropyridin-3-yl)-N-(4-(7-((1-ethylpiperidin-4-yl)methoxy)-6-methoxyquinazolin-4-yl)phenyl)acetamide]: the IC50 on human PDGFR-β(wt) is no more than 50 nM. Moreover, the GI50 with Ba/F3-c-KIT(D816V) and in the experiment on c-KIT V560G/D816V was no more than 200 nM each time.

On to `CCN1CCC(COc2cc3ncnc(-c4ccc(NC(=O)Cc5ccc(C(F)(F)F)nc5)cc4)c3cc2OC)CC1` [Example 63, N-(4-(7-((1-ethylpiperidin-4-yl)methoxy)-6-methoxyquinazolin-4-yl)phenyl)-2-(6-(trifluoromethyl)pyridin-3-yl)acetamide], for which the IC50 at human PDGFR-β(wt) is no more than 50 nM. The GI50 in the experiment with Ba/F3-c-KIT(D816V) and in the experiment on c-KIT V560G/D816V was no more than 200 nM each time.

With `CCN1CCC[C@@H](COc2cc3ncnc(-c4ccc(NC(=O)Cc5ccc(C(F)(F)F)cc5)cc4)c3cc2OC)C1` [Example 74, (R)-N-(4-(7-((1-ethylpiperidin-3-yl)methoxy)-6-methoxyquinazolin-4-yl)phenyl)-2-(4-(trifluoromethyl)phenyl)acetamide], the IC50 at human PDGFR-β(wt) was no more than 50 nM. Moreover, the GI50 in the experiment on Ba/F3-c-KIT(D816V) and in the experiment with c-KIT V560G/D816V was no more than 200 nM each time.

Regarding `COc1ccc(CC(=O)Nc2ccc(-c3ncnc4cc(OCCCN5CCN(C)CC5)c(OC)cc34)cc2)cn1` [Example 81, N-(4-(6-methoxy-7-(3-(4-methylpiperazin-1-yl)propoxy)quinazolin-4-yl)phenyl)-2-(6-methoxypyridin-3-yl)acetamide], the IC50 at human PDGFR-β(wt) is no more than 50 nM. The GI50 in the experiment on Ba/F3-c-KIT(D816V) and in the experiment on c-KIT V560G/D816V was no more than 200 nM throughout.

Consider `CCN1CCC(COc2cc3ncnc(-c4ccc(NC(=O)Cc5cccc(C(F)(F)F)c5)cc4)c3cc2OC)CC1` [Example 64, N-(4-(7-((1-ethylpiperidin-4-yl)methoxy)-6-methoxyquinazolin-4-yl)phenyl)-2-(3-(trifluoromethyl)phenyl)acetamide], for which the IC50 on human PDGFR-β(wt) was no more than 50 nM. Also, the GI50 with Ba/F3-c-KIT(D816V) and with c-KIT V560G/D816V was no more than 200 nM each time.

Take `COc1cc2c(-c3ccc(NC(=O)Cc4ccc(Cl)nc4)cc3)ncnc2cc1OCC1CCNCC1` [Example 69, 2-(6-chloropyridin-3-yl)-N-(4-(6-methoxy-7-(piperidin-4-ylmethoxy)quinazolin-4-yl)phenyl)acetamide]: the IC50 at human PDGFR-β(wt) is no more than 50 nM. Besides, in the experiment with Ba/F3-c-KIT(D816V), the GI50 is no more than 200 nM.

Take `COc1cc2c(-c3ccc(NC(=O)Cc4ccc(C(F)(F)F)cc4)cc3)ncnc2cc1OCCCN1C[C@@H]2C[C@H]1CN2C` [Example 32, N-(4-(6-methoxy-7-(3-((1S,4S)-5-methyl-2,5-diazabicyclo[2.2.1]heptane-2-yl)propoxy)quinazolin-4-yl)phenyl)-2-(4-(trifluoromethyl)phenyl)acetamide]: the IC50 on human PDGFR-β(wt) is no more than 50 nM. In addition, the GI50 in the experiment with Ba/F3-c-KIT(D816V) and with c-KIT V560G/D816V was no more than 200 nM in each case.

In the case of `COc1cc2c(-c3ccc(NC(=O)Cc4ccc(Cl)c(C(F)(F)F)c4)cc3)ncnc2cc1OCCCN1CCN(C)CC1` [Example 82, 2-(4-chloro-3-(trifluoromethyl)phenyl)-N-(4-(6-methoxy-7-(3-(4-methylpiperazin-1-yl)propoxy)quinazolin-4-yl)phenyl)acetamide], the IC50 at human PDGFR-β(wt) was no more than 50 nM. Also, the GI50 in the experiment with Ba/F3-c-KIT(D816V) and in the experiment with c-KIT V560G/D816V was no more than 200 nM in each case.

For `COc1cc2c(-c3ccc(NC(=O)Cc4ccc(C(F)(F)F)nc4)cc3)ncnc2cc1OCC1CCN(C)CC1` [Example 101, N-(4-(6-methoxy-7-((1-methylpiperidin-4-yl)methoxy)quinazolin-4-yl)phenyl)-2-(6-(trifluoromethyl)pyridin-3-yl)acetamide], on human PDGFR-β(wt), the IC50 was no more than 50 nM. Besides, the GI50 with c-KIT V560G/D816V is no more than 200 nM.

In the case of `COc1cc2c(-c3ccc(NC(=O)Nc4ccc(Cl)c(C(F)(F)F)c4)cc3)ncnc2cc1OCCCN1CCN(C)CC1` [Example 168, 1-(4-chloro-3-(trifluoromethyl)phenyl)-3-(4-(6-methoxy-7-(3-(4-methylpiperazin-1-yl)propoxy)quinazolin-4-yl)phenyl)urea], the IC50 on human PDGFR-β(wt) lay within 50 to 100 nM.

Take `COCCN1CCC(COc2cc3ncnc(-c4ccc(NC(=O)Cc5ccc(C(F)(F)F)nc5)cc4)c3cc2OC)CC1` [Example 96, N-(4-(6-methoxy-7-((1-(2-methoxyethyl)piperidin-4-yl)methoxy)quinazolin-4-yl)phenyl)-2-(6-(trifluoromethyl)pyridin-3-yl)acetamide]: the IC50 on human PDGFR-β(wt) was no more than 50 nM. Further, the GI50 with c-KIT V560G/D816V is no more than 200 nM.

For the compound `COc1cc2c(-c3ccc(NC(=O)Cc4ccc(C(F)(F)F)nc4)cc3)ncnc2cc1OCC1CCNCC1` [Example 59, N-(4-(6-methoxy-7-(piperidin-4-ylmethoxy)quinazolin-4-yl)phenyl)-2-(6-(trifluoromethyl)pyridin-3-yl)acetamide], the IC50 at human PDGFR-β(wt) was no more than 50 nM. For the same compound, in the experiment on Ba/F3-c-KIT(D816V), the GI50 lay in the range of 200 to 500 nM.

For the compound `COc1cc2c(-c3ccc(NC(=O)Cc4ccc(C(F)(F)F)cc4)cc3)ncnc2cc1OC[C@H]1CCCNC1` [Example 75, (S)-N-(4-(6-methoxy-7-(piperidin-3-ylmethoxy)quinazolin-4-yl)phenyl)-2-(4-(trifluoromethyl)phenyl)acetamide], at human PDGFR-β(wt), the IC50 was no more than 50 nM. For the same compound, the GI50 in the experiment on Ba/F3-c-KIT(D816V) and in the experiment on c-KIT V560G/D816V was no more than 200 nM each time.

Regarding `COc1cc2ncnc(-c3ccc(NC(=O)Cc4ccc(C(F)(F)F)cc4)cc3)c2cc1OC1CCN(C(=O)OC(C)(C)C)CC1` [Example 137, tert-butyl 4-((7-methoxy-4-(4-(2-(4-(trifluoromethyl)phenyl)acetamido)phenyl)quinazolin-6-yl)oxy)piperidin-1-carboxylate], the IC50 on human PDGFR-β(wt) is no more than 50 nM. Also, the GI50 in the experiment with Ba/F3-c-KIT(D816V) lay in the range of 200 to 500 nM.

Take `COc1cc2ncnc(-c3ccc(NC(=O)Cc4ccc(C(F)(F)F)cc4)cc3)c2cc1OCCCN1CCOCC1` [Example 129, N-(4-(7-methoxy-6-(3-morpholinopropoxy)quinazolin-4-yl)phenyl)-2-(4-(trifluoromethyl)phenyl)acetamide]: the IC50 at human PDGFR-β(wt) was no more than 50 nM. Moreover, the GI50 in the experiment with Ba/F3-c-KIT(D816V) is no more than 200 nM; with c-KIT V560G/D816V it was 200 to 500 nM.
